Values of other authors as cited in US20190328772A1, “OPHTHALMIC COMPOSITIONS COMPRISING A CYCLODEXTRIN AS SOLE ACTIVE AGENT” (priority 2016, published 2019).
Like-named read-outs stand apart in the source and are kept apart here.

Columns and labels:
[1] = test system: corneal epithelium of rabbits
drusen = settings: 37° C., 24 hours
mouse brown fat tissue = settings: concentrations of 25-40%, 24 hours

## β-Cyclodextrin sulfobutyl ether [SBE-β-CD]
[1]; solution of 10%
  toxicity or irritation in rabbit eyes: not to be toxic or irritating

## randomly methylated β-CD [RM-β-CD]
[1]; concentration 5%
  toxicity to the corneal epithelium of rabbits: can be toxic

## CC(O)COC[C@H]1O[C@@H]2O[C@H]3[C@H](O)[C@@H](O)[C@@H](O[C@H]4[C@H](O)[C@@H](O)[C@@H](O[C@H]5[C@H](O)[C@@H](O)[C@@H](O[C@H]6[C@H](O)[C@@H](O)[C@@H](O[C@H]7[C@H](O)[C@@H](O)[C@@H](O[C@H]8[C@H](O)[C@@H](O)[C@@H](O[C@H]1[C@H](O)[C@H]2O)O[C@@H]8COCC(C)O)O[C@@H]7COCC(C)O)O[C@@H]6COCC(C)O)O[C@@H]5COCC(C)O)O[C@@H]4COCC(C)O)O[C@@H]3COCC(C)O (stereo partly drawn) [HP-β-CD, Hydroxypropyl-β-cyclodextrin]
[1]; rabbit, in vivo
  toxicity or irritation in rabbit eyes: not to be toxic or irritating
drusen; 40 ml of 25%, sections of a cut up human eye
  dissolving the lipid component in drusen: efficacy in dissolving the lipid component in drusen
drusen; 40 ml of different concentrations, eye sections
  change of drusen by H&E staining: no change
Mouse brown fat tissue
  removal of mouse brown fat tissue: able to partially remove mouse brown fat tissue
